Results from ChEMBL document CHEMBL1201862, “PubChem BioAssay data set” (2004).
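Values below derive from 48-hour exposures of cells grown in 96-well plates, with endpoints linearly interpolated between the two concentrations bracketing the appropriate inhibition level. GI50 is the concentration that inhibits growth by half.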 The source made the active and inactive calls. Rule as the data show it: active = GI50 up to about 1.1 µM and inactive = higher.

Experiments:
Experiment in all cases: inhibition of tumour cell growth, NCI panel, 48 h
HT-29 = tested on: HT-29
UO-31 = tested on: UO-31
786-0 = tested on: 786-0
HL-60 = tested on: HL-60
SF-268 = tested on: SF-268
SK-MEL-28 = tested on: SK-MEL-28
IGROV-1 = tested on: IGROV-1
SF-539 = tested on: SF-539
SNB-75 = tested on: SNB-75
PC-3 = tested on: PC-3
UACC-257 = tested on: UACC-257
NCI/ADR-RES = tested on: NCI/ADR-RES
COLO 205 = tested on: COLO 205
CAKI-1 = tested on: CAKI-1
K562 = tested on: K562
MOLT-4 = tested on: MOLT-4

Measured: GI50

Cc1cn(C2CC(SCCO)C(CO)O2)c(=O)[nH]c1=O (stereo not given)
inactive: HT-29 > 100 µM | UO-31 > 100 µM | 786-0 > 100 µM | HL-60 > 100 µM | SF-268 > 100 µM | SK-MEL-28 > 100 µM | IGROV-1 > 100 µM | SF-539 > 100 µM | SNB-75 > 100 µM | PC-3 > 100 µM | UACC-257 > 100 µM | NCI/ADR-RES > 100 µM | COLO 205 > 100 µM | CAKI-1 > 100 µM | K562 > 100 µM | MOLT-4 > 100 µM

COc1ccccc1N1C(=O)/C(=C\c2cccc(Oc3ccccc3)c2)S(=O)(=O)C1c1ccccc1 (stereo not given)
inactive: UO-31 46.8 µM | 786-0 49.4 µM | SK-MEL-28 71.1 µM | PC-3 41.4 µM | UACC-257 21.7 µM | NCI/ADR-RES 2.92 µM | COLO 205 23.1 µM | CAKI-1 > 100 µM | K562 17.3 µM | MOLT-4 4.92 µM

COC1OC(C(=O)O)C2OC(C)(C)OC12 (stereo not given)
inactive: HT-29 > 100 µM | UO-31 > 100 µM | 786-0 > 100 µM | SF-268 > 100 µM | SK-MEL-28 > 100 µM | IGROV-1 > 100 µM | SF-539 > 100 µM | SNB-75 > 100 µM | PC-3 > 100 µM | UACC-257 > 100 µM | NCI/ADR-RES > 100 µM | COLO 205 > 100 µM | CAKI-1 > 100 µM | K562 > 100 µM | MOLT-4 > 100 µM

COC(=O)C1(c2cc3ccccc3n2S(=O)(=O)c2ccccc2)CC2C=CC1NC2 (stereo not given)
inactive: HT-29 1.79 µM | UO-31 1.48 µM | 786-0 1.94 µM | HL-60 1.94 µM | SK-MEL-28 2.67 µM | IGROV-1 1.34 µM | SF-539 1.95 µM | SNB-75 3.8 µM | PC-3 1.61 µM | UACC-257 2.22 µM | NCI/ADR-RES 2.42 µM | COLO 205 2.17 µM | CAKI-1 1.82 µM | K562 1.77 µM | MOLT-4 1.62 µM

CN1CNc2nc(N)n(C)c(=O)c2C1
inactive: HT-29 > 10 µM | UO-31 > 10 µM | 786-0 > 10 µM | HL-60 > 10 µM | SF-268 > 10 µM | IGROV-1 > 10 µM | SF-539 > 10 µM | SNB-75 7.46 µM | UACC-257 > 10 µM | NCI/ADR-RES > 10 µM | K562 > 10 µM | MOLT-4 > 10 µM

O=c1[nH]c(=S)c2cc3c(=S)[nH]c(=O)n(CCC(c4ccccc4)(c4ccccc4)c4ccccc4)c3nc2n1CCC(c1ccccc1)(c1ccccc1)c1ccccc1
inactive: UO-31 > 100 µM | 786-0 > 100 µM | SF-268 > 100 µM | SK-MEL-28 > 100 µM | SNB-75 > 100 µM | PC-3 > 100 µM | UACC-257 > 100 µM | NCI/ADR-RES > 100 µM | COLO 205 > 100 µM | CAKI-1 > 100 µM | K562 24.8 µM | MOLT-4 15.4 µM
